This note sets out measurements from patent US20260176320A1, “MODULATORS OF G-PROTEIN COUPLED RECEPTORS” (priority 2018, published 2026).

Holding throughout (assay type): cell-based
Assay [1] deals with T1, GLP-1R (Homo sapiens, UniProt P43220). Put plainly: HitHunter cAMP assay (GLP-1R). Conditions: cAMP; for Emax: read-out: (Emax) GLP-1R. In outline: (§1)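 Agonist stimulation lasts 30 min at room temperature on 10,000 cells per well, with phosphodiesterase blocked by 625 μM IBMX. Accumulated cAMP is quantified by competitive antibody luminescence after overnight development.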
T1 sequence (P43220 24-463): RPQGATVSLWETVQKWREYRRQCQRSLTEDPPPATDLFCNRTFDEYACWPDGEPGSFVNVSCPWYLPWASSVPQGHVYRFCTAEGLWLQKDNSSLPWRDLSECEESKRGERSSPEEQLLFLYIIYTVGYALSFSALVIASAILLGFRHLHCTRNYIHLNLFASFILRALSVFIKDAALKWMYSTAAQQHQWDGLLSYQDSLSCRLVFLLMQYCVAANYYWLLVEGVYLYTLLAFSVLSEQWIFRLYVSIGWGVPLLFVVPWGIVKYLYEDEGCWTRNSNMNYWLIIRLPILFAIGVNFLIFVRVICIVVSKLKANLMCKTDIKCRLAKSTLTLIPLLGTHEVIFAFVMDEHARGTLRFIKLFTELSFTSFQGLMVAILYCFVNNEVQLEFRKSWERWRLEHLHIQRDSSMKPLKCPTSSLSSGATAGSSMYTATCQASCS
In general terms: Cyclic AMP is a second messenger, typically raised through Gs and lowered through Gi signalling.

The target of assay [2] is T2, GIP-R (Homo sapiens, UniProt P48546).
T2 sequence (P48546 22-466): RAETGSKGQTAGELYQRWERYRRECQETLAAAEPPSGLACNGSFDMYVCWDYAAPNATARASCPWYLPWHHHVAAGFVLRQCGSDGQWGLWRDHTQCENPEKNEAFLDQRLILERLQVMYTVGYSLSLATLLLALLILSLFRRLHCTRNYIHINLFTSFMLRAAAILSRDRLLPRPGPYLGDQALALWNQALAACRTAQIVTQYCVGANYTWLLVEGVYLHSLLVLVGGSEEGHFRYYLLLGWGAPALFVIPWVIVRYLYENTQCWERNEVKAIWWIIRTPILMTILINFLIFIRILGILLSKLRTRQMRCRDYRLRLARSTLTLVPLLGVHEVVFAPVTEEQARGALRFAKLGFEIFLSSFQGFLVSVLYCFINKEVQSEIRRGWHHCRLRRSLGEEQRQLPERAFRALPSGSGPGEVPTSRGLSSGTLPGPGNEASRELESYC
Put plainly: HitHunter cAMP assay (GIP-R). The note with it: cAMP; for Emax: read-out: (Emax) GIP-R. An outline of the steps:
as §1

The target of assay [3] is T1, GLP-1R. In words: PathHunter β-arrestin assay. An outline of the steps: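 Recruitment of β-arrestin is measured by luminescence after cells, plated overnight, receive serially diluted agonist for 90 min at 37 °C in medium with 0.2% BSA. Detection reagent then develops for 3 h at room temperature, protected from light.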
Where [4] appears, read: read-out: EC50 GIP-R/nM, Table 3.
[5] abbreviates: read-out: EC50 GIP-R/nM, Table 3A.

pEC50: −log10 of the molar value. Where two headings read alike, the source gives them in different places. Where only a bound is given, the exact number is not on record here.

Consider `CC[C@H](C)[C@H](NC(=O)[C@H](CO)NC(=O)[C@H](Cc1ccc(O)cc1)NC(=O)[C@H](CC(=O)O)NC(=O)[C@H](CO)NC(=O)[C@@H](NC(=O)[C@H](Cc1ccccc1)NC(=O)[C@@H](NC(=O)CNC(=O)[C@H](CCC(=O)O)NC(=O)CSCC(=O)NCCN1C(=O)c2cccc3cccc(c23)C1=O)[C@@H](C)O)[C@@H](C)O)C(=O)N[C@@H](Cc1ccc(O)cc1)C(=O)N[C@@H](CC(C)C)C(=O)N[C@@H](CC(=O)O)C(=O)N[C@@H](CCCCN)C(=O)N[C@@H](CCC(N)=O)C(=O)N[C@@H](C)C(=O)N[C@@H](C)C(=O)NC(C)(C)C(=O)N[C@@H](CCC(=O)O)C(=O)N[C@@H](Cc1ccccc1)C(=O)N[C@H](C(=O)N[C@@H](CC(N)=O)C(=O)N[C@@H](Cc1c[nH]c2ccccc12)C(=O)N[C@@H](CC(C)C)C(=O)N[C@@H](CC(C)C)C(=O)N[C@@H](C)C(=O)NCC(=O)NCC(=O)N1CCC[C@H]1C(=O)N[C@@H](CO)C(=O)N[C@@H](CO)C(=O)NCC(=O)N[C@@H](C)C(=O)N1CCC[C@H]1C(=O)N1CCC[C@H]1C(=O)N1CCC[C@H]1C(=O)N[C@@H](CO)C(=O)N[C@@H](CCCCN)C(N)=O)C(C)C` [Compound 158], for which the Emax lay in the range of 31 to 38% in assay [1] (Table 3), 31 to 38% in assay [1] (Table 3A), 104 to 107% in assay [2] (Table 3) and 104 to 107% in assay [2] (Table 3A). The EC50 was in the range of 10 to 100 nM in assay [1] (Table 3, read-out: EC50 GLP-1R/nM); 10 to 100 nM in assay [1] (Table 3A, read-out: EC50 GLP-1R/nM); 0.1 to 1 nM in assay [2] (Table 3, read-out: EC50 GIP-R/nM); 0.1 to 1 nM in assay [2] (Table 3A, read-out: EC50 GIP-R/nM). Besides, the pEC50 in assay [3] (PathHunter β-arrestin assay, read-out: β-arrestin activity EC50) was < 6.00.
For `CC[C@H](C)[C@H](NC(=O)[C@H](CO)NC(=O)[C@H](Cc1ccc(O)cc1)NC(=O)[C@H](CC(=O)O)NC(=O)[C@H](CO)NC(=O)[C@@H](NC(=O)[C@H](Cc1ccccc1)NC(=O)[C@@H](NC(=O)CNC(=O)[C@H](CCC(=O)O)NC(=O)CSCC(=O)NCCN1C(=O)[C@H]2CCCC[C@H]2C1=O)[C@@H](C)O)[C@@H](C)O)C(=O)N[C@@H](Cc1ccc(O)cc1)C(=O)N[C@@H](CC(C)C)C(=O)N[C@@H](CC(=O)O)C(=O)N[C@@H](CCCCN)C(=O)N[C@@H](CCC(N)=O)C(=O)N[C@@H](C)C(=O)N[C@@H](C)C(=O)NC(C)(C)C(=O)N[C@@H](CCC(=O)O)C(=O)N[C@@H](Cc1ccccc1)C(=O)N[C@H](C(=O)N[C@@H](CC(N)=O)C(=O)N[C@@H](Cc1c[nH]c2ccccc12)C(=O)N[C@@H](CC(C)C)C(=O)N[C@@H](CC(C)C)C(=O)N[C@@H](C)C(=O)NCC(=O)NCC(=O)N1CCC[C@H]1C(=O)N[C@@H](CO)C(=O)N[C@@H](CO)C(=O)NCC(=O)N[C@@H](C)C(=O)N1CCC[C@H]1C(=O)N1CCC[C@H]1C(=O)N1CCC[C@H]1C(=O)N[C@@H](CO)C(=O)N[C@@H](CCCCN)C(N)=O)C(C)C` [Compound 159], the EC50 in assay [1] (EC50 GLP-1R/nM, Table 3) lay within 10 to 100 nM; in assay [1] (EC50 GLP-1R/nM, Table 3A), 10 to 100 nM; in assay [2] (EC50 GIP-R/nM, Table 3) it was 1 to 10 nM; in assay [2] (EC50 GIP-R/nM, Table 3A), 1 to 10 nM. Moreover, the Emax in assay [1] (Table 3) was in the range of 87 to 91%; in assay [1] (Table 3A), 87 to 91%; in assay [2] (Table 3) it was 89 to 92%; in assay [2] (Table 3A) it was 89 to 92%. For the same compound, in assay [3], the negative-log EC50 (pEC50) was < 6.00.
Consider `CC[C@H](C)[C@H](NC(=O)[C@H](CO)NC(=O)[C@H](Cc1ccc(O)cc1)NC(=O)[C@H](CC(=O)O)NC(=O)[C@H](CO)NC(=O)[C@@H](NC(=O)[C@H](Cc1ccccc1)NC(=O)[C@@H](NC(=O)CNC(=O)[C@H](CCC(=O)O)NC(=O)CSCC(=O)NCCN1C(=O)c2cccnc2C1=O)[C@@H](C)O)[C@@H](C)O)C(=O)N[C@@H](Cc1ccc(O)cc1)C(=O)N[C@@H](CC(C)C)C(=O)N[C@@H](CC(=O)O)C(=O)N[C@@H](CCCCN)C(=O)N[C@@H](CCC(N)=O)C(=O)N[C@@H](C)C(=O)N[C@@H](C)C(=O)NC(C)(C)C(=O)N[C@@H](CCC(=O)O)C(=O)N[C@@H](Cc1ccccc1)C(=O)N[C@H](C(=O)N[C@@H](CC(N)=O)C(=O)N[C@@H](Cc1c[nH]c2ccccc12)C(=O)N[C@@H](CC(C)C)C(=O)N[C@@H](CC(C)C)C(=O)N[C@@H](C)C(=O)NCC(=O)NCC(=O)N1CCC[C@H]1C(=O)N[C@@H](CO)C(=O)N[C@@H](CO)C(=O)NCC(=O)N[C@@H](C)C(=O)N1CCC[C@H]1C(=O)N1CCC[C@H]1C(=O)N1CCC[C@H]1C(=O)N[C@@H](CO)C(=O)N[C@@H](CCCCN)C(N)=O)C(C)C` [Compound 160], for which the EC50 in assay [1] (EC50 GLP-1R/nM, Table 3) was in the range of 1 to 10 nM; in assay [1] (EC50 GLP-1R/nM, Table 3A) it was 1 to 10 nM; in assay [2] (EC50 GIP-R/nM, Table 3), 0.1 to 1 nM; in assay [2] (EC50 GIP-R/nM, Table 3A), 0.1 to 1 nM. Besides, the Emax in assay [1] (Table 3) was 85 to 95%; in assay [1] (Table 3A), 85 to 95%; in assay [2] (Table 3) it was 109 to 113%; in assay [2] (Table 3A) it was 109 to 113%. For the same compound, the pEC50 in assay [3] is < 6.00.
In the case of `CC[C@H](C)[C@H](NC(=O)[C@H](CO)NC(=O)[C@H](Cc1ccc(O)cc1)NC(=O)[C@H](CC(=O)O)NC(=O)[C@H](CO)NC(=O)[C@@H](NC(=O)[C@H](Cc1ccccc1)NC(=O)[C@@H](NC(=O)CNC(=O)[C@H](CCC(=O)O)NC(=O)CSCC(=O)NCCN1C(=O)c2ccc(Cl)cc2C1=O)[C@@H](C)O)[C@@H](C)O)C(=O)N[C@@H](Cc1ccc(O)cc1)C(=O)N[C@@H](CC(C)C)C(=O)N[C@@H](CC(=O)O)C(=O)N[C@@H](CCCCN)C(=O)N[C@@H](CCC(N)=O)C(=O)N[C@@H](C)C(=O)N[C@@H](C)C(=O)NC(C)(C)C(=O)N[C@@H](CCC(=O)O)C(=O)N[C@@H](Cc1ccccc1)C(=O)N[C@H](C(=O)N[C@@H](CC(N)=O)C(=O)N[C@@H](Cc1c[nH]c2ccccc12)C(=O)N[C@@H](CC(C)C)C(=O)N[C@@H](CC(C)C)C(=O)N[C@@H](C)C(=O)NCC(=O)NCC(=O)N1CCC[C@H]1C(=O)N[C@@H](CO)C(=O)N[C@@H](CO)C(=O)NCC(=O)N[C@@H](C)C(=O)N1CCC[C@H]1C(=O)N1CCC[C@H]1C(=O)N1CCC[C@H]1C(=O)N[C@@H](CO)C(=O)N[C@@H](CCCCN)C(N)=O)C(C)C` [Compound 161], the EC50 in assay [1] (EC50 GLP-1R/nM, Table 3) is 10 to 100 nM; in assay [1] (EC50 GLP-1R/nM, Table 3A) it was 10 to 100 nM; in assay [2] (setting [4]), 1 to 100 nM; in assay [2] (setting [5]), 1 to 100 nM. Further, the maximal response (Emax) is 89 to 101% in assay [1] (Table 3), 89 to 101% in assay [1] (Table 3A), 58 to 107% in assay [2] (Table 3) and 58 to 107% in assay [2] (Table 3A). Besides, the pEC50 in assay [3] is < 6.00.
With `CC[C@H](C)[C@H](NC(=O)[C@H](CO)NC(=O)[C@H](Cc1ccc(O)cc1)NC(=O)[C@H](CC(=O)O)NC(=O)[C@H](CO)NC(=O)[C@@H](NC(=O)[C@H](Cc1ccccc1)NC(=O)[C@@H](NC(=O)CNC(=O)[C@H](CCC(=O)O)NC(=O)CSCC(=O)NCCN1C(=O)c2cccc(Cl)c2C1=O)[C@@H](C)O)[C@@H](C)O)C(=O)N[C@@H](Cc1ccc(O)cc1)C(=O)N[C@@H](CC(C)C)C(=O)N[C@@H](CC(=O)O)C(=O)N[C@@H](CCCCN)C(=O)N[C@@H](CCC(N)=O)C(=O)N[C@@H](C)C(=O)N[C@@H](C)C(=O)NC(C)(C)C(=O)N[C@@H](CCC(=O)O)C(=O)N[C@@H](Cc1ccccc1)C(=O)N[C@H](C(=O)N[C@@H](CC(N)=O)C(=O)N[C@@H](Cc1c[nH]c2ccccc12)C(=O)N[C@@H](CC(C)C)C(=O)N[C@@H](CC(C)C)C(=O)N[C@@H](C)C(=O)NCC(=O)NCC(=O)N1CCC[C@H]1C(=O)N[C@@H](CO)C(=O)N[C@@H](CO)C(=O)NCC(=O)N[C@@H](C)C(=O)N1CCC[C@H]1C(=O)N1CCC[C@H]1C(=O)N1CCC[C@H]1C(=O)N[C@@H](CO)C(=O)N[C@@H](CCCCN)C(N)=O)C(C)C` [Compound 162], the EC50 lay in the range of 10 to 100 nM in assay [1] (EC50 GLP-1R/nM, Table 3); 10 to 100 nM in assay [1] (EC50 GLP-1R/nM, Table 3A); 0.1 to 10 nM in assay [2] (setting [4]); 0.1 to 10 nM in assay [2] (setting [5]). The Emax in assay [1] (Table 3) lay within 42 to 46%; in assay [1] (Table 3A) it was 42 to 46%; in assay [2] (Table 3) it was 103 to 107%; in assay [2] (Table 3A) it was 103 to 107%. The pEC50 in assay [3] is < 6.00.

By Emax is commonly meant the size of the effect at its maximum, as opposed to the concentration needed. The term pEC50 denotes the negative decadic logarithm of the EC50, by convention in mol/L.
